According to the supplement of paper PMC10307832:

Key:
Assay in all cases: relative viability (nuclei count vs DMSO), 5 days (fraction); higher = more cells survive
Selumetinib + Bortezomib = compound: Cn1cnc2c(F)c(Nc3ccc(Br)cc3Cl)c(C(=O)NOCCO)cc21 [Selumetinib] + CC(C)C[C@H](NC(=O)[C@H](Cc1ccccc1)NC(=O)c1cnccn1)B(O)O [Bortezomib] (partner 0.002 µM)
Outline: (§1)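 Lung cancer cell lines were seeded in 1536-well plates and dosed by pin tool the next day, with either a single drug or a fixed anchor-drug dose combined with five library-drug doses (not always all listed) spaced in √10 steps. Five days later, one step fixed the cells and stained their nuclei (final 0.05% Triton X-100, 1% formaldehyde, 1 ug/ml Hoechst), and nuclei were counted on 4× images. Relative viability is the nuclei count in treated wells divided by the count in vehicle wells, and each value is the median of duplicate plates.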

Venetoclax + Crizotinib = compound: CC1(C)CCC(CN2CCN(c3ccc(C(=O)NS(=O)(=O)c4ccc(NCC5CCOCC5)c([N+](=O)[O-])c4)c(Oc4cnc5[nH]ccc5c4)c3)CC2)=C(c2ccc(Cl)cc2)C1 [Venetoclax] + C[C@@H](Oc1cc(-c2cnn(C3CCNCC3)c2)cnc1N)c1c(Cl)ccc(F)c1Cl [Crizotinib] (partner 1 µM)
Outline: as §1

Venetoclax + Palbociclib = compound: CC1(C)CCC(CN2CCN(c3ccc(C(=O)NS(=O)(=O)c4ccc(NCC5CCOCC5)c([N+](=O)[O-])c4)c(Oc4cnc5[nH]ccc5c4)c3)CC2)=C(c2ccc(Cl)cc2)C1 [Venetoclax] + CC(=O)c1c(C)c2cnc(Nc3ccc(N4CCNCC4)cn3)nc2n(C2CCCC2)c1=O [Palbociclib] (partner 0.5 µM)
Outline: as §1

Selumetinib + Vorinostat = compound: Cn1cnc2c(F)c(Nc3ccc(Br)cc3Cl)c(C(=O)NOCCO)cc21 [Selumetinib] + O=C(CCCCCCC(=O)Nc1ccccc1)NO [Vorinostat] (partner 1 µM)
Outline: as §1

Row | Cell Line | relative viability (Selumetinib + Bortezomib; first compound 0.02 µM) | relative viability (Selumetinib + Bortezomib; first compound 0.06325 µM) | relative viability (Selumetinib + Bortezomib; first compound 0.2 µM) | relative viability (Selumetinib + Bortezomib; first compound 0.6325 µM) | relative viability (Venetoclax + Crizotinib; first compound 0.01 µM) | relative viability (Venetoclax + Crizotinib; first compound 0.03162 µM) | relative viability (Venetoclax + Crizotinib; first compound 0.1 µM) | relative viability (Venetoclax + Crizotinib; first compound 0.3162 µM) | relative viability (Venetoclax + Crizotinib; first compound 1 µM) | relative viability (Venetoclax + Palbociclib; first compound 0.01 µM) | relative viability (Venetoclax + Palbociclib; first compound 0.03162 µM) | relative viability (Venetoclax + Palbociclib; first compound 0.1 µM) | relative viability (Venetoclax + Palbociclib; first compound 0.3162 µM) | relative viability (Venetoclax + Palbociclib; first compound 1 µM) | relative viability (Selumetinib + Vorinostat; first compound 0.02 µM) | relative viability (Selumetinib + Vorinostat; first compound 0.06325 µM) | relative viability (Selumetinib + Vorinostat; first compound 0.2 µM) | relative viability (Selumetinib + Vorinostat; first compound 0.6325 µM)
1 | Calu-6 | 1.07 | 0.792 | 0.648 | 0.558 | 0.79 | 0.798 | 0.794 | 0.776 | 0.72 |  |  |  |  |  |  |  |  | 
2 | ChaGo-K-1 | 0.959 | 0.993 | 0.942 | 1.05 | 1.1 | 1.27 |  | 1.16 | 1.08 | 0.992 | 0.986 | 0.867 | 0.905 | 0.899 | 0.762 | 0.684 | 0.708 | 0.674
3 | EBC-1 | 0.759 | 0.625 | 0.578 | 0.304 | 0.213 | 0.18 | 0.207 | 0.211 | 0.146 |  |  |  |  |  |  |  |  | 
4 | EKVX | 0.858 | 0.795 | 0.543 | 0.748 | 0.834 | 0.985 | 0.897 | 0.895 | 0.882 | 0.438 | 0.397 | 0.378 | 0.331 | 0.363 | 0.557 | 0.531 | 0.446 | 0.384
5 | EMC-BAC-2 | 1.06 | 1.07 | 1.01 | 0.999 | 0.687 | 0.774 | 0.779 | 0.775 | 0.71 | 0.5 | 0.555 | 0.533 | 0.541 | 0.486 | 0.928 | 0.682 | 0.607 | 0.865
